A word on the EC50: it is the midpoint of the concentration-response curve.

Consider three compounds from paper PMC3843955 (Antiviral research, 2013).

One data set deals with MRC-5 fibroblasts. Description: CellTiter-Glo cytotoxicity assay, MRC-5. In kind it is cell-based, human. The conditions noted are these: uninfected MRC-5, ± standard deviation; for Yield inhibition MRC-5 TD50: CellTiter-Glo cytotoxicity assay after 5 d exposure to drugs; for Spread inhibition MRC-5 TD50: CellTiter-Glo cytotoxicity assay after 14 d exposure to drugs.
In data set [1] the test system is MCMV. The conditions noted are these: read-out: EC50 for MCMV, cited from earlier work.
For data set [2] the following is noted: human, in vivo; cited from earlier work.
Data set [3] concerns MCMV. The settings on record: sub-lethal MCMV infection in mice; ref Go et al., 2011; cited from earlier work.
The next data set relates to HCMV. The experiment in a line: HCMV inhibition across spread inhibition and yield reduction assays. The settings on record: TD50 versus anti-HCMV EC50.

Values joined by “and” are separate entries in the source; they are usually repeats but may differ in a detail not shown here. Identical values can stand only once. Like-named read-outs stand apart in the source and are kept apart here.

Turning to `NC(=O)NO` [HU, hydroxyurea], in the data set with MRC-5 fibroblasts, the “Yield inhibition MRC-5 TD50” value is recorded as 14,500 ± 5400 µM and the “Spread inhibition MRC-5 TD50” value was determined as 4253 ± 701 µM. Moreover, in the data set on MCMV [1] (ref Lembo et al., 2000), the EC50 was 3 µM. For the same compound, the peak plasma concentration in data set [2] is 264 to 660 µM.

For `O=C(NO)c1ccc(O)c(O)c1` [DX, didox], in the data set with MRC-5 fibroblasts, the “Yield inhibition MRC-5 TD50” value came to 256 ± 5.7 µM and the “Spread inhibition MRC-5 TD50” value is given as 146 ± 0.7 µM. In the data set on MCMV [1] (ref Go et al., 2011), the EC50 was 10 to 25 µM. For the same compound, the “viral load in livers and spleen” value in the data set on MCMV [3] is “failed to decrease viral load in livers and spleen”. The peak plasma level result in data set [2] is “approximately 300 µM”. Further, the “cytotoxicity TD50 fold higher than antiviral EC50” value in the data set with HCMV was 1.5- to 2 fold and 2 fold.

With `N/C(=N\O)c1cc(O)c(O)c(O)c1` [TX, trimidox], in the data set on MRC-5 fibroblasts, the “Yield inhibition MRC-5 TD50” value worked out at 166 ± 57 µM and the “Spread inhibition MRC-5 TD50” value is given as 86 ± 4.2 µM. For the same compound, the “cytotoxicity TD50 fold higher than antiviral EC50” value with HCMV was 1.5- to 2 fold and 2 fold.
